Assay results taken from patent publication US20160304461A1, “QUINOLONE COMPOUND AND PHARMACEUTICAL COMPOSITION” (OTSUKA PHARMACEUTICAL CO., LTD., priority 2007, published 2016).

Columns and labels:
[1] = system: human neuroblastoma cell lines SH-SY5Y; assay: Improvement of mitochondrial dysfunction in MPP+-treated SH-SY5Y cells (Alamar Blue mitochondrial oxidation reduction activity); type: cell-based; conditions: SH-SY5Y cells in 1.5 mM MPP+ medium, relative to cells in DMSO alone = 100%, read-out: Fluorescence Intensity (%); for activity at 0.01 µg/mL: test compound 0.01 μg/ml; for activity at 0.03 µg/mL: test compound 0.03 μg/ml; for activity at 0.1 µg/mL: test compound 0.1 μg/ml; for activity at 0.3 µg/mL: test compound 0.3 μg/ml; for activity at 1 µg/mL: test compound 1 μg/ml
Protocol: Evaluation of Improvement of Mitochondrial Dysfunction using Human Neuroblastoma Cell Lines SH-SY5Y Treated with 1-methyl-4-phenylpyridinium (MPP^+)
In human neuroblastoma cell lines SH-SY5Y in which mitochondrial activity was injured by MPP^+ treatment (Bollimuntha S. et al., J Biol Chem, 280, 2132-2140 (2005) and Shang T. et al., J Biol Chem, 280, 34644-34653 (2005)), improvement of the mitochondrial dysfunction was evaluated on the basis of the measurement value of the mitochondrial oxidation reduction activity using Alamar Blue fluorescent dye after the compound addition (Nakai M. et. al, Exp Neurol, 179, 103-110 (2003)).
The human neuroblastoma cell lines SH-SY5Y were cultured in Dulbecco's Modified Eagle's Medium containing 10% fetal bovine serum (DMEM containing 50 units/ml penicillin and 50 μg/ml streptomycin as antibiotics) at 37° C. in the presence of 5% carbon dioxide. Cells were scattered on a poly-D-lysine-coated 96-well black plate at a concentration of 3-6×10^4 cells/cm^2 (medium amount: 100 μl/well), and cultured in the above medium for two days. Further, the medium was changed to a DMEM containing a 1% N2 supplement (N2-DMEM) or to a medium (100 μl/well) in which 1.5 mM MPP^+ was dissolved. The cells were cultured therein for 39 to 48 hours, and then subjected to a mitochondrial oxidation reduction activity measurement system. A sample compound that had been previously dissolved in dimethyl sulfoxide (DMSO) was diluted with N2-DMEM, and added in a volume of 10 μl/well 24 hours before the activity measurement (final compound concentration: 0.01 to 1 μg/ml).
After removal of the medium by suction, a balanced salt solution containing 10% Alamar Blue (154 mM sodium chloride, 5.6 mM potassium chloride, 2.3 mM calcium chloride, 1.0 mM magnesium chloride, 3.6 mM sodium bicarbonate, 5 mM glucose, 5 mM HEPES, pH 7.2) was added in a volume of 100 μl/well, and reacted in an incubator at 37° C. for 1 hour. The fluorescent intensity was detected using a fluorescence detector (a product of Hamamatsu Photonics K.K., excitation wavelength 530 nm, measurement wavelength 580 nm) to thereby measure the mitochondrial oxidation reduction activity.
The fluorescent intensity of the well of the cells cultured in a medium containing MPP^+ and in each of the sample compounds was relatively evaluated based on a 100% fluorescent intensity of the well of the cells cultured in a medium containing DMSO alone (final concentration: 0.1%).

CCCOc1ccc(F)c2c(=O)c(-c3ccoc3)c[nH]c12 [Example 1, 5-Fluoro-3-furan-3-yl-8-propoxy-1H-quinolin-4-one]
activity at 0.01 µg/mL [1]: 51%
activity at 0.03 µg/mL [1]: 62%
activity at 0.1 µg/mL [1]: 70%
activity at 0.3 µg/mL [1]: 66%
activity at 1 µg/mL [1]: 64%
melting point: 214 to 215 °C

CCCOc1ccc(F)c2c(=O)c(-c3ccsc3)c[nH]c12 [Example 3, 5-Fluoro-8-propoxy-3-thiophen-3-yl-1H-quinolin-4-one]
activity at 0.01 µg/mL [1]: 54%
activity at 0.03 µg/mL [1]: 63%
activity at 0.1 µg/mL [1]: 70%
activity at 0.3 µg/mL [1]: 78%
activity at 1 µg/mL [1]: 74%
melting point: 208 to 210 °C

CCCOc1ccc(F)c2c(=O)c(-c3ccc(OC)c(Cl)c3)c[nH]c12 [Example 4, 3-(3-Chloro-4-methoxyphenyl)-5-fluoro-8-propoxy-1H-quinolin-4-one]
activity at 0.01 µg/mL [1]: 56%
activity at 0.03 µg/mL [1]: 61%
activity at 0.1 µg/mL [1]: 70%
activity at 0.3 µg/mL [1]: 72%
activity at 1 µg/mL [1]: 59%
melting point: 217 to 218 °C

CCCOc1ccc(F)c2c(=O)c(-c3ccc(OC)cc3)c[nH]c12 [Example 6, 5-Fluoro-3-(4-methoxyphenyl)-8-propoxy-1H-quinolin-4-one]
activity at 0.01 µg/mL [1]: 59%
activity at 0.03 µg/mL [1]: 71%
activity at 0.1 µg/mL [1]: 85%
activity at 0.3 µg/mL [1]: 88%
activity at 1 µg/mL [1]: 83%
melting point: 196 to 197 °C

CCCOc1cc(F)c(F)c2c(=O)c(-c3ccc(OC)cc3)c[nH]c12 [Example 21, 5,6-Difluoro-3-(4-methoxyphenyl)-8-propoxy-1H-quinolin-4-one]
activity at 0.01 µg/mL [1]: 52%
activity at 0.03 µg/mL [1]: 59%
activity at 0.1 µg/mL [1]: 63%
activity at 0.3 µg/mL [1]: 74%
activity at 1 µg/mL [1]: 57%
melting point: 198 to 200 °C

COc1ccc(-c2c[nH]c3c(OCC4CC4)ccc(F)c3c2=O)cc1 [Example 24, 8-Cyclopropylmethoxy-5-fluoro-3-(4-methoxyphenyl)-1H-quinolin-4-one]
activity at 0.01 µg/mL [1]: 60%
activity at 0.03 µg/mL [1]: 70%
activity at 0.1 µg/mL [1]: 82%
activity at 0.3 µg/mL [1]: 78%
activity at 1 µg/mL [1]: 84%
melting point: 190 to 191 °C

COc1ccc(-c2c[nH]c3c(N(C)C4CCCCC4)ccc(F)c3c2=O)cc1 [Example 25, 8-(N-Cyclohexyl-N-methylamino)-5-fluoro-3-(4-methoxyphenyl)-1H-quinolin-4-one]
activity at 0.01 µg/mL [1]: 46%
activity at 0.03 µg/mL [1]: 56%
activity at 0.1 µg/mL [1]: 66%
activity at 0.3 µg/mL [1]: 50%
activity at 1 µg/mL [1]: 24%
melting point: 224 to 225 °C

CCCN(C)c1ccc(F)c2c(=O)c(-c3ccc(OC)cc3)c[nH]c12 [Example 30, 5-Fluoro-3-(4-methoxyphenyl)-8-(N-methyl-N-propylamino)-1H-quinolin-4-one]
activity at 0.01 µg/mL [1]: 50%
activity at 0.03 µg/mL [1]: 54%
activity at 0.1 µg/mL [1]: 69%
activity at 0.3 µg/mL [1]: 64%
activity at 1 µg/mL [1]: 56%
melting point: 145 to 146 °C

COc1ccc(-c2c[nH]c3c(OCCCC(F)(F)F)ccc(F)c3c2=O)cc1 [Example 31, 5-Fluoro-3-(4-methoxyphenyl)-8-(4,4,4-trifluorobutoxy)-1H-quinolin-4-one]
activity at 0.01 µg/mL [1]: 45%
activity at 0.03 µg/mL [1]: 45%
activity at 0.1 µg/mL [1]: 57%
activity at 0.3 µg/mL [1]: 59%
activity at 1 µg/mL [1]: 48%
melting point: 171 to 172 °C

COCCN(C)c1ccc(F)c2c(=O)c(-c3ccc(OC)cc3)c[nH]c12.Cl [Example 34, 5-Fluoro-8-[N-(2-methoxyethyl)-N-methylamino]-3-(4-methoxyphenyl)-1H-quinolin-4-one hydrochloride]
activity at 0.01 µg/mL [1]: 69%
activity at 0.03 µg/mL [1]: 74%
activity at 0.1 µg/mL [1]: 77%
activity at 0.3 µg/mL [1]: 78%
activity at 1 µg/mL [1]: 87%
melting point: 100 to 101 °C

CCCOc1ccc(F)c2c(=O)c(-c3ccc(OCC4CC4)cc3)c[nH]c12 [Example 35, 3-(4-Cyclopropylmethoxyphenyl)-5-fluoro-8-propoxy-1H-quinolin-4-one]
activity at 0.01 µg/mL [1]: 75%
activity at 0.03 µg/mL [1]: 88%
activity at 0.1 µg/mL [1]: 99%
activity at 0.3 µg/mL [1]: 95%
activity at 1 µg/mL [1]: 65%
melting point: 162 to 163 °C

COCCOc1ccc(F)c2c(=O)c(-c3ccc(OC)cc3)c[nH]c12 [Example 36, 5-Fluoro-8-(2 methoxyethoxy)-3-(4-methoxyphenyl)-1H-quinolin-4-one]
activity at 0.01 µg/mL [1]: 63%
activity at 0.03 µg/mL [1]: 65%
activity at 0.1 µg/mL [1]: 74%
activity at 0.3 µg/mL [1]: 71%
activity at 1 µg/mL [1]: 91%
melting point: 142 to 144 °C

COc1ccc(-c2c[nH]c3c(OC4CCCC4)ccc(F)c3c2=O)cc1 [Example 37, 8-Cyclopentyloxy-5-fluoro-3-(4-methoxyphenyl)-1H-quinolin-4-one]
activity at 0.01 µg/mL [1]: 64%
activity at 0.03 µg/mL [1]: 73%
activity at 0.1 µg/mL [1]: 78%
activity at 0.3 µg/mL [1]: 70%
activity at 1 µg/mL [1]: 61%
melting point: 213 to 215 °C

CCCOc1ccc(F)c2c(=O)c(-c3ccc(SC)cc3)c[nH]c12 [Example 38, 5-Fluoro-3-(4-methylsulfanylphenyl)-8-propoxy-1H-quinolin-4-one]
activity at 0.01 µg/mL [1]: 66%
activity at 0.03 µg/mL [1]: 67%
activity at 0.1 µg/mL [1]: 86%
activity at 0.3 µg/mL [1]: 81%
activity at 1 µg/mL [1]: 78%
melting point: 198 to 199 °C

CCCSc1ccc(F)c2c(=O)c(-c3ccc(OC)cc3)c[nH]c12 [Example 40, 5-Fluoro-3-(4-methoxyphenyl)-8-propylsulfanyl-1H-quinolin-4-one]
activity at 0.01 µg/mL [1]: 60%
activity at 0.03 µg/mL [1]: 64%
activity at 0.1 µg/mL [1]: 76%
activity at 0.3 µg/mL [1]: 70%
activity at 1 µg/mL [1]: 72%
melting point: 173 to 174 °C

COc1ccc(-c2c(C)[nH]c3c(OCC4CC4)ccc(F)c3c2=O)cc1 [Example 47, 8-Cyclopropylmethoxy-5-fluoro-3-(4-methoxyphenyl)-2-methyl-1H-quinolin-4-one]
activity at 0.01 µg/mL [1]: 51%
activity at 0.03 µg/mL [1]: 58%
activity at 0.1 µg/mL [1]: 71%
activity at 0.3 µg/mL [1]: 73%
activity at 1 µg/mL [1]: 82%
melting point: 167 to 169 °C

CCCOc1ccc(F)c2c(=O)c(-c3ccc(CC)cc3)c[nH]c12 [Example 53, 3-(4-Ethylphenyl)-5-fluoro-8-propoxy-1H-quinolin-4-one]
activity at 0.01 µg/mL [1]: 53%
activity at 0.03 µg/mL [1]: 56%
activity at 0.1 µg/mL [1]: 67%
activity at 0.3 µg/mL [1]: 60%
activity at 1 µg/mL [1]: 67%
melting point: 153 to 154 °C

CCCOc1ccc(F)c2c(=O)c(-c3cccs3)c[nH]c12 [Example 59, 5-Fluoro-8-propoxy-3-thiophen-2-yl-1H-quinolin-4-one]
activity at 0.01 µg/mL [1]: 53%
activity at 0.03 µg/mL [1]: 56%
activity at 0.1 µg/mL [1]: 67%
activity at 0.3 µg/mL [1]: 66%
activity at 1 µg/mL [1]: 54%
melting point: 211 to 213 °C

CCCOc1ccc(F)c2c(=O)c(-c3ccc(N(C)C)cc3)c[nH]c12 [Example 61, 3-(4-Dimethylaminophenyl)-5-fluoro-8-propoxy-1H-quinolin-4-one]
activity at 0.01 µg/mL [1]: 70%
activity at 0.03 µg/mL [1]: 65%
activity at 0.1 µg/mL [1]: 85%
activity at 0.3 µg/mL [1]: 80%
activity at 1 µg/mL [1]: 86%
melting point: 206 to 207 °C

CCCOc1ccc(Cl)c2c(=O)c(-c3ccc(OC)cc3)c[nH]c12 [Example 103, 5-Chloro-3-(4-methoxyphenyl)-8-propoxy-1H-quinolin-4-one]
melting point: 194 to 196 °C

COc1ccc(-c2c[nH]c3c(OC4CCCC4)ccc(Br)c3c2=O)cc1 [Example 104, 5-Bromo-8-cyclopentyloxy-3-(4-methoxyphenyl)-1H-quinolin-4-one]
melting point: 213 to 215 °C
